# Test results from ChEMBL document CHEMBL5500384, “New synergistic benzoquinone scaffolds as inhibitors of mycobacterial cytochrome bc1 complex to treat multi-drug resistant tuberculosis” (Eur J Med Chem, 2024).
# Experiments:
# [1] = tested on: Mycobacterium tuberculosis; experiment: Antitubercular activity against Mycobacterium tuberculosis H37Rv incubated for 5 days by microtiter plate method; type: functional; conditions: 120 h, time 5 day
# [2] = Acute toxicity in Albino mouse assessed as change in serum urea level at 50 to 2000 mg/kg, po measured after 14 days (reference value: 46 mg/dl); type: organism-based; conditions: in vivo, 336 h, dose 50-2000 mg/kg, time 14 day
# [3] = Hepatotoxicity in Albino mouse assessed as change in portal tracks at 50 to 2000 mg/kg, po measured after 14 days; type: toxicity, organism-based; conditions: in vivo, 336 h, dose 50-2000 mg/kg, time 14 day
# [4] = Hepatotoxicity in Albino mouse assessed as change in hepatic artery at 50 to 2000 mg/kg, po measured after 14 days; type: toxicity, organism-based, Liver; conditions: in vivo, 336 h, dose 50-2000 mg/kg, time 14 day
# [5] = Acute toxicity in po dosed Albino mouse assessed as mortality after 14 days; type: organism-based; conditions: in vivo, time 14 day
# [6] = Acute toxicity in Albino mouse assessed as change in monocytes at 50 to 2000 mg/kg, po measured after 14 days (reference value: 1%); type: organism-based; conditions: in vivo, 336 h, dose 50-2000 mg/kg, time 14 day
# [7] = Cytotoxicity against african green monkey Vero cells by MTT assay; type: toxicity, cell-based; conditions: chlorocebus sabaeus
# [8] = Renal toxicity in Albino mouse assessed as extravasation of RBC at 50 to 2000 mg/kg, po measured after 14 days; type: organism-based, Erythrocyte; conditions: in vivo, 336 h, dose 50-2000 mg/kg, time 14 day
# [9] = Pulmonary toxicity in Albino mouse assessed as change in bronchi structure at 50 to 2000 mg/kg, po measured after 14 days; type: organism-based; conditions: in vivo, 336 h, dose 50-2000 mg/kg, time 14 day
# [10] = Acute toxicity in Albino mouse assessed as change in ALP level at 50 to 2000 mg/kg, po measured after 14 days (reference value: 28 IU/L); type: organism-based; conditions: in vivo, 336 h, dose 50-2000 mg/kg, time 14 day
# [11] = Pulmonary toxicity in Albino mouse assessed as change in alveolar sacs at 50 to 2000 mg/kg, po measured after 14 days; type: organism-based; conditions: in vivo, 336 h, dose 50-2000 mg/kg, time 14 day
# [12] = Acute toxicity in Albino mouse assessed as change in platelet count at 50 to 2000 mg/kg, po measured after 14 days (reference value: 3.24 mm3); type: organism-based; set-up: unit not given here; conditions: in vivo, 336 h, dose 50-2000 mg/kg, time 14 day
# [13] = Acute toxicity in Albino mouse assessed as change in SGPT count at 50 to 2000 mg/kg, po measured after 14 days (reference value: 52 IU/L); type: organism-based; conditions: in vivo, 336 h, dose 50-2000 mg/kg, time 14 day
# [14] = Renal toxicity in Albino mouse assessed as change in proximal convoluted tubules at 50 to 2000 mg/kg, po measured after 14 days; type: organism-based; conditions: in vivo, 336 h, dose 50-2000 mg/kg, time 14 day
# [15] = Acute toxicity in Albino mouse assessed as change in lymphocytes at 50 to 2000 mg/kg, po measured after 14 days (reference value: 21%); type: organism-based; conditions: in vivo, 336 h, dose 50-2000 mg/kg, time 14 day
# [16] = Acute toxicity in Albino mouse assessed as change in eosinophils at 50 to 2000 mg/kg, po measured after 14 days (reference value: 3%); type: organism-based; conditions: in vivo, 336 h, dose 50-2000 mg/kg, time 14 day
# [17] = Acute toxicity in Albino mouse assessed as change in RBC count measured per million cells at 50 to 2000 mg/kg, po measured after 14 days (reference value: 9.15 microL); type: organism-based, Erythrocyte; conditions: in vivo, 336 h, dose 50-2000 mg/kg, time 14 day
# [18] = Renal toxicity in Albino mouse assessed as change in renal tubules at 50 to 2000 mg/kg, po measured after 14 days; type: organism-based; conditions: in vivo, 336 h, dose 50-2000 mg/kg, time 14 day
# [19] = Acute toxicity in Albino mouse assessed as mortality at 50 mg/kg, po after 14 days; type: organism-based; conditions: in vivo, 336 h, time 14 day
# [20] = Acute toxicity in Albino mouse assessed as change in total leucocyte count at 50 to 2000 mg/kg, po measured after 14 days (reference value: 7400 mm3); type: organism-based; conditions: in vivo, 336 h, dose 50-2000 mg/kg, time 14 day
# [21] = Renal toxicity in Albino mouse assessed as structural absorbability abnormalities at 50 to 2000 mg/kg, po measured after 14 days; type: organism-based; conditions: in vivo, 336 h, dose 50-2000 mg/kg, time 14 day
# [22] = Acute toxicity in Albino mouse assessed as change in LDH level at 50 to 2000 mg/kg, po measured after 14 days (reference value: 1052 IU/L); type: organism-based; conditions: in vivo, 336 h, dose 50-2000 mg/kg, time 14 day
# [23] = Pulmonary toxicity in Albino mouse assessed as appearance of cilia at 50 to 2000 mg/kg, po measured after 14 days; type: organism-based; conditions: in vivo, 336 h, dose 50-2000 mg/kg, time 14 day
# [24] = Cytotoxicity against african green monkey Vero cells assessed as cell viability at 100 ug/ml by MTT assay; type: toxicity, cell-based; conditions: chlorocebus sabaeus, at 100 µg/mL, read-out: Activity
# [25] = Hepatotoxicity in Albino mouse assessed as change in central vein at 50 to 2000 mg/kg, po measured after 14 days; type: toxicity, organism-based; conditions: in vivo, 336 h, dose 50-2000 mg/kg, time 14 day
# [26] = Acute toxicity in Albino mouse assessed as mortality at 300 mg/kg, po after 5 to 8 hrs; type: organism-based; conditions: in vivo, time 5-8 hrs
# [27] = Pulmonary toxicity in Albino mouse assessed as change in squamous pneumocytes at 50 to 2000 mg/kg, po measured after 14 days; type: organism-based; conditions: in vivo, 336 h, dose 50-2000 mg/kg, time 14 day
# [28] = Pulmonary toxicity in Albino mouse assessed as appearance of goblet cells at 50 to 2000 mg/kg, po measured after 14 days; type: organism-based; conditions: in vivo, 336 h, dose 50-2000 mg/kg, time 14 day
# [29] = Acute toxicity in Albino mouse assessed as change in neutrophils at 50 to 2000 mg/kg, po measured after 14 days (reference value: 75%); type: organism-based; conditions: in vivo, 336 h, dose 50-2000 mg/kg, time 14 day
# [30] = Acute toxicity in Albino mouse assessed as change in hemoglobin level at 50 to 2000 mg/kg, po measured after 14 days (reference value: 12.8 g/dl); type: organism-based; conditions: in vivo, 336 h, dose 50-2000 mg/kg, time 14 day
# [31] = Cytotoxicity against african green monkey Vero cells assessed as cell viability at 12.5 ug/ml by MTT assay; type: toxicity, cell-based; conditions: chlorocebus sabaeus, at 12.5 µg/mL, read-out: Activity
# [32] = Acute toxicity in Albino mouse assessed as change in ESR at 50 to 2000 mg/kg, po measured after 14 days (reference value: 10 millimeter); type: organism-based; conditions: in vivo, 336 h, dose 50-2000 mg/kg, time 14 day
# [33] = Acute toxicity in Albino mouse assessed as change in serum creatine level at 50 to 2000 mg/kg, po measured after 14 days (reference value: 0.9 mg/dl); type: organism-based; conditions: in vivo, 336 h, dose 50-2000 mg/kg, time 14 day
# [34] = Renal toxicity in Albino mouse assessed as change in distal convoluted tubules at 50 to 2000 mg/kg, po measured after 14 days; type: organism-based; conditions: in vivo, 336 h, dose 50-2000 mg/kg, time 14 day
# [35] = Hepatotoxicity in Albino mouse assessed as change in bile duct at 50 to 2000 mg/kg, po measured after 14 days; type: toxicity, organism-based, Liver; conditions: in vivo, 336 h, dose 50-2000 mg/kg, time 14 day
# [36] = Renal toxicity in Albino mouse assessed as change in tubular capillaries at 50 to 2000 mg/kg, po measured after 14 days; type: organism-based; conditions: in vivo, 336 h, dose 50-2000 mg/kg, time 14 day
# [37] = Acute toxicity in Albino mouse assessed as change in SGOT count at 50 to 2000 mg/kg, po measured after 14 days (reference value: 42 IU/L); type: organism-based; conditions: in vivo, 336 h, dose 50-2000 mg/kg, time 14 day
# [38] = Cytotoxicity against african green monkey Vero cells assessed as cell viability at 3.125 ug/ml by MTT assay; type: toxicity, cell-based; conditions: chlorocebus sabaeus, at 3.125 µg/mL, read-out: Activity
# [39] = Cytotoxicity against african green monkey Vero cells assessed as cell viability at 25 ug/ml by MTT assay; type: toxicity, cell-based; conditions: chlorocebus sabaeus, at 25 µg/mL, read-out: Activity
# [40] = Pulmonary toxicity in Albino mouse assessed as change in alveoli structure at 50 to 2000 mg/kg, po measured after 14 days; type: organism-based; conditions: in vivo, 336 h, dose 50-2000 mg/kg, time 14 day
# [41] = Renal toxicity in Albino mouse assessed as change in renal corpuscles at 50 to 2000 mg/kg, po measured after 14 days; type: organism-based; conditions: in vivo, 336 h, dose 50-2000 mg/kg, time 14 day
# [42] = Cytotoxicity against african green monkey Vero cells assessed as cell viability at 50 ug/ml by MTT assay; type: toxicity, cell-based; conditions: chlorocebus sabaeus, at 50 µg/mL, read-out: Activity
# [43] = Cytotoxicity against african green monkey Vero cells assessed as cell viability at 6.25 ug/ml by MTT assay; type: toxicity, cell-based; conditions: chlorocebus sabaeus, at 6.25 µg/mL, read-out: Activity
# [44] = Hepatotoxicity in Albino mouse assessed as change in portal vein at 50 to 2000 mg/kg, po measured after 14 days; type: toxicity, organism-based; conditions: in vivo, 336 h, dose 50-2000 mg/kg, time 14 day
# [45] = Acute toxicity in Albino mouse assessed as mortality at 2000 mg/kg, po after 2 to 4 hrs; type: organism-based; conditions: in vivo, time 2-4 hrs
# [46] = Renal toxicity in Albino mouse assessed as change in Bowman's capsule at 50 to 2000 mg/kg, po measured after 14 days; type: organism-based; conditions: in vivo, 336 h, dose 50-2000 mg/kg, time 14 day
smiles,measurement,setting,value
O=C1C(Cl)=C(/N=C/c2ccccc2O)C(=O)c2ccccc21,MIC,[1],12.5 µg/mL
O=C1C(Cl)=C(N2C(=O)C(Cl)C2c2ccccc2)C(=O)c2ccccc21 (stereo unspecified),MIC,[1],6.25 µg/mL
O=C1C(Cl)=C(/N=C/c2ccc([N+](=O)[O-])cc2)C(=O)c2ccccc21,MIC,[1],12.5 µg/mL
O=C1C(Cl)=C(/N=C/c2ccc(Cl)cc2)C(=O)c2ccccc21,MIC,[1],6.25 µg/mL
O=C1C(Cl)=C(N2C(=O)C(Cl)C2c2ccc([N+](=O)[O-])cc2)C(=O)c2ccccc21 (stereo unspecified),Activity,[2],37.75 mg/dL
same,Activity,[3],Non-Toxic
same,Activity,[4],Non-Toxic
same,LD50 at 336 h,[5],50 mg/kg
same,Activity,[6],1%
same,Activity,[7],Dose-Dependent Effect
same,Activity,[8],Non-Toxic
same,Activity,[9],Non-Toxic
same,MIC,[1],30 µM
same,Activity,[10],429.54 IU/L
same,Activity,[11],Non-Toxic
same,Activity,[12],5.95
same,Activity,[13],43.21 IU/L
same,Activity,[14],Non-Toxic
same,Activity,[15],39%
same,Activity,[16],4%
same,Activity,[17],9.85
same,Activity,[18],Non-Toxic
same,Activity,[19],Non-Toxic
same,Activity,[20],8800 mm3
same,Activity,[21],Non-Toxic
same,Activity,[22],505 IU/L
same,Activity,[23],Non-Toxic
same,viability at 100 ug/ml,[24],9.6%
same,Activity,[25],Non-Toxic
same,Activity,[26],Toxic
same,Activity,[27],Non-Toxic
same,Activity,[28],Non-Toxic
same,Activity,[29],72%
same,Activity,[30],13.2 g/dL
same,viability at 12.5 ug/ml,[31],78%
same,Activity,[32],15 millimeter/hr
same,Activity,[33],0.33 mg/dL
same,Activity,[34],Non-Toxic
same,Activity,[35],Non-Toxic
same,Activity,[36],Non-Toxic
same,Activity,[37],168.42 IU/L
same,viability at 3.125 ug/ml,[38],100%
same,viability at 25 ug/ml,[39],46.2%
same,Activity,[40],Non-Toxic
same,Activity,[41],Non-Toxic
same,viability at 50 ug/ml,[42],21.4%
same,viability at 6.25 ug/ml,[43],100%
same,Activity,[44],Non-Toxic
same,Activity,[45],Toxic
same,Activity,[46],Non-Toxic
O=C1C(Cl)=C(/N=C/c2ccccc2)C(=O)c2ccccc21,MIC,[1],12.5 µg/mL
